# Results reported in ChEMBL document CHEMBL1139234, “Optimization of monocarboxylate transporter 1 blockers through analysis and modulation of atropisomer interconversion properties” (J Med Chem, 2007).
# Experiment: Solubility of the compound
# Assay type: physicochemical
# Conditions: not given
row,solubility [µg/mL],Structure (SMILES)
1,2900,Cc1n[nH]c(C)c1Cc1sc2c(c1C(=O)N1C[C@H](O)CO1)c(=O)n(C)c(=O)n2CC(C)C
2,500,CC(C)Cn1c(=O)n(C)c(=O)c2c(C(=O)N3CC[C@@H](O)C3)c(Cc3ccnc4ccccc34)sc21

# Experiment: physchem
# Conditions: octanol/water
row,logD,Structure (SMILES)
1,2.6,CC(C)n1c(=O)n(C)c(=O)c2c(C(=O)N3CCS(=O)(=O)C3)c(Cc3ccccc3C(F)(F)F)sc21
2,2,CC(C)Cn1c(=O)n(C)c(=O)c2c(C(=O)N3C[C@H](O)CO3)c(Cc3c[nH]c4ncccc34)sc21
3,2,CC(C)Cn1c(=O)n(C)c(=O)c2c(C(=O)N3CC[C@@H](O)C3)c(Cc3ccnc4ccc(F)cc34)sc21
4,1.1,Cc1n[nH]c(C)c1Cc1sc2c(c1C(=O)N1C[C@H](O)CO1)c(=O)n(C)c(=O)n2CC(C)C
5,2.3,CON(C)C(=O)c1c(Cn2c(C)nc(Cl)c2Cl)sc2c1c(=O)n(C)c(=O)n2CC(C)C
6,1.8,CNc1nc2ccccc2n1Cc1sc2c(c1C(=O)N1C[C@H](O)CO1)c(=O)n(C)c(=O)n2CC(C)C
7,2.9,CC(C)Cn1c(=O)n(C)c(=O)c2c(C(=O)N3CC[C@@H](O)C3)c(Oc3cccc4ccccc34)sc21
8,3.2,CC(C)Cn1c(=O)n(C)c(=O)c2c(C(=O)N3C[C@H](O)CO3)c(Cc3ccccc3C(F)(F)F)sc21
